# Test system: TRPV4EC channels
# Experiment: TRPV4 sparklet activity in human PMVECs exposed to acute HR
# Format: cell-based
# Design: dose or concentration left out as unconfirmed
# Details: 1 h hypoxia + 10 min reoxygenation
# Description: TRPV4 sparklets were assessed as increases in fluorescence relative to baseline fluorescence, obtained by averaging 10 quiescent images prior to stimulation. TRPV4 Ca^2+ sparklets were assessed based on previously established methods.^9,11 Average TRPV4 sparklet activity is defined as NPO, where N is the number of TRPV4 channels per site and PO is the open-state probability of the channel. NPO was calculated using the Single Channel Search module of Clampfit. quantal amplitudes derived from all-points histograms (0.3 AF/F0 for Fluo-4-loaded Pas),^12 and the following equation: NPO=(Tlevel1+2Tlevel2+3Tlevel3+4Tlevel4)/Ttotal, where T represents the dwell time at each quantal level and Ttotal is the total recording duration. […]
# Ca^2+ imaging in human and mouse PMVECs was performed using an Andor Dragonfly 505 spinning-disk confocal imaging system with Borealis illumination and an Integrated Laser Engine solid-state laser source (Andor Technology, Belfast, UK), coupled with a Leica Dmi8 inverted microscope (Leica) and 63× objective (NA 1.47)^13 Images were acquired at 30 frames per second using Fusion 2.3 (Oxford Instruments, Belfast, UK) and an electron-multiplying CCD camera (iXon888). Calbryte 520 AM was excited at 488 nm, and emitted fluorescence was captured using a 525/50 bandpass emission filter. […]
smiles,measurement,value
"Cc1ccc2c(c1)C=Cc1cc(C)ccc1C2c1cn(Cc2ccc(C(=O)Nc3nn[nH]n3)o2)c(=O)[nH]c1=S [ARC, AR-C 118925XX]",HR-induced increase in TRPV4EC sparklets,blocked
